For data set [1], the target named is Acetylcholinesterase (Homo sapiens, UniProt P22303). Description: Inhibition of recombinant human AChE expressed in HEK293 cells using acetylthiocholine iodide as substrate pretreated for 4.5 mins followed by substrate addition and measured after 2.5 mins by Ellman's method.
The target of data set [2] is Acetylcholinesterase (Electrophorus electricus, UniProt O42275).
Description: Inhibition of electric eel AChE using acetylthiocholine iodide as substrate pretreated for 4.5 mins followed by substrate addition and measured after 2.5 mins by Ellman's method
A short description of another data set: physchem. The note with it: octanol/water.
The target in data set [3] is Cholinesterase (Equus caballus, UniProt P81908).
Description: Inhibition of equine serum BChE using butyrylthiocholine iodide as substrate pretreated for 4.5 mins followed by substrate addition and measured after 2.5 mins by Ellman's method
The target in data set [4] is Cholinesterase (Homo sapiens, UniProt P06276). The data set can be described thus: Inhibition of human serum BChE using butyrylthiocholine iodide as substrate pretreated for 4.5 mins followed by substrate addition and measured after 2.5 mins by Ellman's method. Background: Ellman's reagent forms a yellow product with free thiols.
The test system of another data set is HepG2. Description: cells. The following applies: Homo sapiens, HepG2, 72 h.
The next data set is filed under the species Homo sapiens. The data set can be described thus: Selectivity ratio of compound effect for displacement of [3H]NMS from recombinant human M2 receptor expressed in CHO cell membranes to displacement of [3H]NMS from recombinant human M1 receptor expressed in CHO cell membranes. Background: Loss of bound radioactivity is the signal in a displacement assay; it reports binding, not function.

Data set [5] concerns the target Acetylcholinesterase (Electrophorus electricus) (UniProt O42275). Description: Inhibition of electric eel AChE at 100 uM using acetylthiocholine iodide as substrate pretreated for 4.5 mins followed by substrate addition and measured after 2.5 mins by Ellman's method relative to control.

The text below walks through data of ChEMBL document CHEMBL4257444, “Novel bipharmacophoric inhibitors of the cholinesterases with affinity to the muscarinic receptors M1 and M2” (Medchemcomm, 2017).

Broadly, the IC50 is the midpoint of a concentration-inhibition curve. By logP is commonly meant a log measure of how a compound divides between an organic and an aqueous phase. High values mean a more lipophilic compound, low ones a more hydrophilic compound. As a reminder, the inhibition is the percentage by which the read-out fell short of the control.

Chain of Cholinesterase (Equus caballus, UniProt P81908) (P81908 whole entry): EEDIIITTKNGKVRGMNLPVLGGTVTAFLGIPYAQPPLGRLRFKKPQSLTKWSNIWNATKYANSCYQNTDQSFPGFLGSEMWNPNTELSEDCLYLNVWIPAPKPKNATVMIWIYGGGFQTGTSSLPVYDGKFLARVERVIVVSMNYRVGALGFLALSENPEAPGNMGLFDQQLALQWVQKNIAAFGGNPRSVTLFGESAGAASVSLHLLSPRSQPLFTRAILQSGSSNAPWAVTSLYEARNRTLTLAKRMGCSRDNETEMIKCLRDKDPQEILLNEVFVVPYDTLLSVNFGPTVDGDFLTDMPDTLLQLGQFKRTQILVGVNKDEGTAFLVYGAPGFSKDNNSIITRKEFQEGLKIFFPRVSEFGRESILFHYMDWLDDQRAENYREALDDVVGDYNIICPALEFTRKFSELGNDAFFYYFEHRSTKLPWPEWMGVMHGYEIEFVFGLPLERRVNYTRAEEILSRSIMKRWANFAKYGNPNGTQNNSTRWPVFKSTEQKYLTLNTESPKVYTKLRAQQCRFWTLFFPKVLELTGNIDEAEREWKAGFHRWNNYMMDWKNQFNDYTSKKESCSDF
Chain of Cholinesterase (Homo sapiens, UniProt P06276) (P06276 whole entry): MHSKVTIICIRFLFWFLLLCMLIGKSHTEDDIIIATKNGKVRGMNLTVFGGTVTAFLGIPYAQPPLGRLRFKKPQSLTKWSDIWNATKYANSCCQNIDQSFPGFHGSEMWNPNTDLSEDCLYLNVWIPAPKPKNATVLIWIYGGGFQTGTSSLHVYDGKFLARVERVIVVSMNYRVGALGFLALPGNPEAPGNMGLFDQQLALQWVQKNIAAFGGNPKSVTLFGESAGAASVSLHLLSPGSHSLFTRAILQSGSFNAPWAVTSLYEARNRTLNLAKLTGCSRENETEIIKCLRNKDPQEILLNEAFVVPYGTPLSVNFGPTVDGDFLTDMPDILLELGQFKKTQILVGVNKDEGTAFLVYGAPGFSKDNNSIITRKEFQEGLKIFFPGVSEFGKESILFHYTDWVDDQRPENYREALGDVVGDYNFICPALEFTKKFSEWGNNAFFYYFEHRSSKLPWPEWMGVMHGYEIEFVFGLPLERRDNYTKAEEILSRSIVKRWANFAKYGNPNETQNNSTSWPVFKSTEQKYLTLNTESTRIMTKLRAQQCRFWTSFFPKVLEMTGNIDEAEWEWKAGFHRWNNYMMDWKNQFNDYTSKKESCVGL
Chain of Acetylcholinesterase (Homo sapiens, UniProt P22303) (P22303 whole entry): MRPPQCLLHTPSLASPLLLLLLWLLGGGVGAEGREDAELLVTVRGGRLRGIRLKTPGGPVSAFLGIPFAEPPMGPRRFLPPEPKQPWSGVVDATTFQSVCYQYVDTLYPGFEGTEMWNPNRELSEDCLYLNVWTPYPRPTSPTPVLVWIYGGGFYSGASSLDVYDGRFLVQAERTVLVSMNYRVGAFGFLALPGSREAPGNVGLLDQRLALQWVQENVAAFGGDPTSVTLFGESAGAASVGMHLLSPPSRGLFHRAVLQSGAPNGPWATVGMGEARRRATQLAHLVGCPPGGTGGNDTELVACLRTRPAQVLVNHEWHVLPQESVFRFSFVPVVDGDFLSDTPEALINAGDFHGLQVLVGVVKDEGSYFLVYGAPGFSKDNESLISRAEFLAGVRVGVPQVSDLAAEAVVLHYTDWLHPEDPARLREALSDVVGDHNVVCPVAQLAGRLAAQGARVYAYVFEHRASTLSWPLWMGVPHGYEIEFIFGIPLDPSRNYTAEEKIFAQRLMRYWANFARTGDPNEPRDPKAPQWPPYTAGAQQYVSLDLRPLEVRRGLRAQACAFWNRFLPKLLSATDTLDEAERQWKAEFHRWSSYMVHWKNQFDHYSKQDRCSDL
Chain of Acetylcholinesterase (Electrophorus electricus, UniProt O42275) (O42275 whole entry): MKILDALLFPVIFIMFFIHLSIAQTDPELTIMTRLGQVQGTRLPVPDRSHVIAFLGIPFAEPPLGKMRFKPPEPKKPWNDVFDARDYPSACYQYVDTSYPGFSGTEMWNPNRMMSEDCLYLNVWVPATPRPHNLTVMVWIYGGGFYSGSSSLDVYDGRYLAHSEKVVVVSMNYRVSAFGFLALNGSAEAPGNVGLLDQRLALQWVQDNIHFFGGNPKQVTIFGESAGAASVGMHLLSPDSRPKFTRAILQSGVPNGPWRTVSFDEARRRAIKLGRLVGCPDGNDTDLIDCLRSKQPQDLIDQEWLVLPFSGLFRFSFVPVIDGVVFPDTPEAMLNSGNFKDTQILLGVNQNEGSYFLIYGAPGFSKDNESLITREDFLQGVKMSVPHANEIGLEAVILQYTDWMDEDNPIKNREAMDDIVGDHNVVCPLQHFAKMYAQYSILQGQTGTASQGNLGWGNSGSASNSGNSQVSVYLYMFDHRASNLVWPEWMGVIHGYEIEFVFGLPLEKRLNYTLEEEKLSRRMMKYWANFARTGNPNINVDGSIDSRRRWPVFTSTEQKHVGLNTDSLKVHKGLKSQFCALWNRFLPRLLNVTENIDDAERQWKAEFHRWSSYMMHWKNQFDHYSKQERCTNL
Chain of Acetylcholinesterase (Electrophorus electricus) (O42275 24-633 limits assumed): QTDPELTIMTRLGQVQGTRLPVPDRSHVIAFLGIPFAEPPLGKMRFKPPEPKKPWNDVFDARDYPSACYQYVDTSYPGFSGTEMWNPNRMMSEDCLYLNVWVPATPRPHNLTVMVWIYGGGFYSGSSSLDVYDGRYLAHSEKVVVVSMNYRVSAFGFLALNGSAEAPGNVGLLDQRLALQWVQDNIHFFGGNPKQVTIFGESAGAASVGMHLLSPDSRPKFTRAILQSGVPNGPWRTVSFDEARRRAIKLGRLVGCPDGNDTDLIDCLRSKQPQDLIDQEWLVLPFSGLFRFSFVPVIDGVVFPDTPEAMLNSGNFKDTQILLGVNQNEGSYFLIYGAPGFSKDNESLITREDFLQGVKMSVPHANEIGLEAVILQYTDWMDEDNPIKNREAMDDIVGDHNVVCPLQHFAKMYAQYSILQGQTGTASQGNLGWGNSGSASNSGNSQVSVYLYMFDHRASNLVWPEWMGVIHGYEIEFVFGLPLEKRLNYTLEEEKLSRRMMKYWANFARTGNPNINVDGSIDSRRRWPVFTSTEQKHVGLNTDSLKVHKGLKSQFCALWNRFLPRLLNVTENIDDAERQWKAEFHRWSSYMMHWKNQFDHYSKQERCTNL
Description for HepG2: Cytotoxicity against human HepG2 cells after 72 hrs by alamar blue assay
Description for physchem: Octanol/water partition co-efficient, log P of the compound by RP-HPLC analysis

Turning to `CC(C)(CN1C(=O)c2cccc3cccc(c23)C1=O)C[N+](C)(C)CCCCCCCCCC[N+](C)(C)CC#CCOC1=NOCC1`, the IC50 on Acetylcholinesterase [1] is 1070 nM; against Acetylcholinesterase [2] it was 316 nM; against Cholinesterase [3], 102 nM; at Cholinesterase [4], 263 nM. The same molecule registered a logP in the data set “physchem” of 1.77.

Regarding `C[N+](C)(CC#CCOC1=NOCC1)CCCCCCCCCC[N+](C)(C)CCCN1C(=O)c2ccccc2C1=O`, the 50% inhibitory concentration (IC50) was 13200 nM at Acetylcholinesterase [1], 5500 nM against Acetylcholinesterase [2], 4270 nM against Cholinesterase [3] and 1950 nM on Cholinesterase [4]. This molecule registered a logP in “physchem” of 0.8.

As to `C[N+](C)(CC#CCOC1=NOCC1)CCCCCCCCC[N+](C)(C)CCCN1C(=O)c2ccccc2C1=O`, the values for the IC50 on Acetylcholinesterase [2] and against Cholinesterase [3] were 15800 nM and 13200 nM, respectively. For the same molecule, in the data set “physchem”, the lipophilicity (logP) turned out to be 0.79.

As for `CC(C)(CN1C(=O)c2cccc3cccc(c23)C1=O)C[N+](C)(C)CCCCCCCCC[N+](C)(C)CC#CCOC1=NOCC1`, the figures for the IC50 against Acetylcholinesterase [2] and against Cholinesterase [3] were 363 nM and 324 nM, respectively. The same molecule yielded a logP in “physchem” of 1.69.

Regarding `C[N+](C)(CC#CCOC1=NOCC1)CCCCCCCC[N+](C)(C)CCCN1C(=O)c2ccccc2C1=O`, the IC50 against Acetylcholinesterase [2] was 12900 nM; against Cholinesterase [3], 7410 nM. This molecule returned a log partition coefficient (logP) in the data set “physchem” of 0.78.

In the case of `c1ccc2c(NCCCCCCCNc3c4c(nc5ccccc35)CCCC4)c3c(nc2c1)CCCC3`, the IC50 against Acetylcholinesterase [2] was 0.0331 nM; in the data set on HepG2, less than 1380 nM; against Cholinesterase [3], 0.724 nM.

As for `C[N+](C)(CC#CCOc1ccon1)CCCCCCCC[N+](C)(C)CCCN1C(=O)c2ccccc2C1=O`, the values for the IC50 against Acetylcholinesterase [2] and against Cholinesterase [3] were 67600 nM and 7940 nM, respectively. In “physchem”, this molecule came in with a logP of 0.83.

Regarding `C[N+](C)(CC#CCOC1=NOCC1)CCCCCCC[N+](C)(C)CCCN1C(=O)c2ccccc2C1=O`, the 50% inhibitory concentration (IC50) on Acetylcholinesterase [2] is 14800 nM; at Cholinesterase [3] it was 6460 nM. In addition, the logP in the data set “physchem” was 0.79.

On to `C[N+](C)(CC#CCOC1=NOCC1)CCCCCC[N+]1(C)CCC(N2C(=O)c3ccccc3C2=O)CC1` (configuration not stated), for which the IC50 on Acetylcholinesterase [2] is 2400 nM; on Cholinesterase [3], 10700 nM. The same molecule gave a lipophilicity (logP) in “physchem” of 0.84.

For the molecule `C[N+](C)(CC#CCOC1=NOCC1)CCCCCCCCCCNc1c2c(nc3ccccc13)CCCC2`, the IC50 was 1.78 nM at Acetylcholinesterase [1]; 0.155 nM at Acetylcholinesterase [2]; 32200 nM with HepG2; 1.78 nM at Cholinesterase [3]; 1.82 nM at Cholinesterase [4]. The log partition coefficient (logP) in “physchem” was found to be 3.28. In addition, the Selectivity ratio in the data set filed under Homo sapiens worked out at 8.

In the case of `BrCCCCCCCNc1c2c(nc3ccccc13)CCCC2`, the IC50 at Acetylcholinesterase [2] is 0.398 nM; on Cholinesterase [3], 263 nM.

Take `C[N+](C)(CC#CCOC1=NOCC1)CCCCCC[N+]1(C)CCC(N2C(=O)c3cccc4cccc(c34)C2=O)CC1` (configuration not stated): the IC50 is 1050 nM on Acetylcholinesterase [2] and 851 nM against Cholinesterase [3]. For the same molecule, the logP in the data set “physchem” worked out at 1.54.

Consider `C[N+](C)(CC#CCOc1ccon1)CCCC[N+](C)(C)CCCN1C(=O)c2ccccc2C1=O`, for which the logP in “physchem” is 1.55. The inhibition in data set [5] was 19.1%. Also, half-maximal inhibition on Cholinesterase [3] (IC50) required 85100 nM.

Turning to `c1ccc2c(CCCCCCCCCCNc3c4c(nc5ccccc35)CCCC4)c3c(nc2c1)CCCC3`, the IC50 against Acetylcholinesterase [2] is 1 nM; in the data set on HepG2, less than 1250 nM; against Cholinesterase [3], 0.457 nM.

As for `CC(C)(CN1C(=O)c2cccc3cccc(c23)C1=O)C[N+](C)(C)CCCCCCCC[N+](C)(C)CC#CCOC1=NOCC1`, the IC50 was 794 nM on Acetylcholinesterase [2] and 347 nM at Cholinesterase [3]. Also, in “physchem”, the logP was found to be 1.61.

As for `C[N+](C)(CC#CCOC1=NOCC1)CCCCCCCNc1c2c(nc3ccccc13)CCCC2`, the IC50 is 2 nM at Acetylcholinesterase [1]; 1.74 nM against Acetylcholinesterase [2]; greater than 160000 nM in the data set with HepG2; 5.13 nM against Cholinesterase [3]; 4.57 nM at Cholinesterase [4]. The logP in “physchem” stood at 2.05. The Selectivity ratio in the data set listed under Homo sapiens was 3.

In the data set “physchem”, `C[N+](C)(CC#CCOc1ccon1)CCCCCC[N+](C)(C)CCCN1C(=O)c2ccccc2C1=O` came in with a logP of 0.99. In addition, the inhibition in data set [5] worked out at 32.2%. This molecule had an IC50 against Cholinesterase [3] of 38900 nM.

In the case of `BrCCCCCCCCCCNc1c2c(nc3ccccc13)CCCC2`, the IC50 against Acetylcholinesterase [2] is 0.562 nM; at Cholinesterase [3], 8.71 nM.

With `CC(C)(CN1C(=O)c2cccc3cccc(c23)C1=O)C[N+](C)(C)CCCCCCC[N+](C)(C)CC#CCOC1=NOCC1`, the IC50 is 912 nM against Acetylcholinesterase [2] and 204 nM at Cholinesterase [3]. Besides, the logP in “physchem” turned out to be 1.7.
